From ChEMBL document CHEMBL2169748 (J Med Chem, 2012) come the findings set out here.

≈ marks a conversion by molar mass, not a printed value.

A short description of data set [1]: Oral bioavailability in dog. The class given is ADME, organism-based, Canis lupus familiaris. The following applies: in vivo.
Data set [2] in a line: Half life in dog. The class given is ADME, organism-based, Canis lupus familiaris. The following applies: in vivo.
A short description of data set [3]: Oral bioavailability in rat. The class given is ADME, organism-based. As to conditions: in vivo.
A short description of data set [4]: Half life in rat. The class given is ADME, organism-based. As to conditions: in vivo.
The nature of data set [5]: Volume of distribution at steady state in rat. The following applies: in vivo, read-out: Vdss. The class given is ADME, organism-based.
The nature of data set [6]: Volume of distribution at steady state in dog. The class given is ADME, organism-based, Canis lupus familiaris. As to conditions: in vivo, read-out: Vdss.
Data set [7] in a line: Clearance in dog. It is filed as ADME, organism-based, Canis lupus familiaris. As to conditions: in vivo.
The nature of data set [8]: Clearance in rat. The following applies: in vivo. The class given is ADME, organism-based.
Data set [9] in a line: Permeability across MDCK cells. The class given is ADME, cell-based, Canis lupus familiaris. The following applies: dog.
A short description of data set [10]: Solubility in aqueous solution at pH 6.5. The class given is physicochemical.

As a reminder, the bioavailability is dose-corrected exposure relative to a reference, in per cent. A higher bioavailability goes with much systemic uptake. What is called half-life is the time in which the quantity being followed falls by half. Read a high half-life as slow loss. By clearance is commonly meant the volume of plasma or blood freed of the substance per unit of time. Regarding `CCc1nc2ccccc2n1-c1nc(N2CCOCC2)c2nc(CN3CCC(C(C)(C)O)CC3)n(C)c2n1`, the bioavailability is over 100% in data set [1] and 92% in data set [3]. Also, the half-life was 384 min in data set [2] and 90 min in [4]. For the same molecule, the Vd was found to be 4.1 L/kg in data set [5] and 2 L/kg in data set [6]. Also, the clearance in [7] amounted to 5 mL/min/kg; in [8] it was 19 mL/min/kg.

As usually defined, the Papp is a coefficient for how fast a substance crosses the barrier. In general, solubility refers to how much of the substance goes into solution per volume. Lower therefore signals little dissolved substance. `CCc1nc2ccccc2n1-c1nc(N2CCOCC2)c2nc(CN3CC(C4CCOCC4)C3)n(C)c2n1` came in with a bioavailability in [1] of 56%. In addition, the half-life is 216 min in data set [2] and 156 min in data set [4]. In addition, the Vd in data set [5] and in data set [6] was 6.5 L/kg in each case. The clearance in data set [7] turned out to be 25 mL/min/kg; in data set [8] it was 34 mL/min/kg. For the same molecule, the Papp in [9] was 16 ×10⁻⁶ cm/s. The same molecule gave a solubility in data set [10] of 338 µg/mL (≈ 654 µM).
